According to the supplement of paper PMC10307832:

How the values were obtained:
Experiment in all cases: relative viability (nuclei count vs DMSO), 5 days (fraction); higher = more cells survive
QS11 + Navitoclax = compound: C1CC2=C(C1)C=C(C=C2)OC3=NC(=C4C(=N3)N(C=N4)CC5=CC=C(C=C5)C6=CC=CC=C6)N[C@@H](CC7=CC=CC=C7)CO [QS11] + CC1(C)CCC(c2ccc(Cl)cc2)=C(CN2CCN(c3ccc(C(=O)NS(=O)(=O)c4ccc(N[C@H](CCN5CCOCC5)CSc5ccccc5)c(S(=O)(=O)C(F)(F)F)c4)cc3)CC2)C1 [Navitoclax] (partner 0.5 µM)
Outline: (§1)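 One day after seeding in 1536-well plates, lung cancer cell lines were dosed by pin tool. Dosing was either single-drug or a fixed anchor-drug dose plus five library-drug doses (not always all listed) in √10 steps. After 5 days, nuclei were stained in one fix-and-stain step and counted on 4× images, and relative viability is the nuclei count of treated wells over that of vehicle wells, given as the median of duplicate plates.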

QS11 + Phenformin = compound: C1CC2=C(C1)C=C(C=C2)OC3=NC(=C4C(=N3)N(C=N4)CC5=CC=C(C=C5)C6=CC=CC=C6)N[C@@H](CC7=CC=CC=C7)CO [QS11] + N=C(N)NC(=N)NCCc1ccccc1 [Phenformin] (partner 250 µM)
Outline: as §1

AZ628 + Trametinib = compound: CC1=C(C=C(C=C1)NC(=O)C2=CC(=CC=C2)C(C)(C)C#N)NC3=CC4=C(C=C3)N=CN(C4=O)C [AZ628] + CC(=O)Nc1cccc(-n2c(=O)n(C3CC3)c(=O)c3c(Nc4ccc(I)cc4F)n(C)c(=O)c(C)c32)c1 [Trametinib] (partner 0.02 µM)
Outline: as §1

AZ628 + Luminespib = compound: CC1=C(C=C(C=C1)NC(=O)C2=CC(=CC=C2)C(C)(C)C#N)NC3=CC4=C(C=C3)N=CN(C4=O)C [AZ628] + CCNC(=O)c1noc(-c2cc(C(C)C)c(O)cc2O)c1-c1ccc(CN2CCOCC2)cc1 [Luminespib] (partner 0.01 µM)
Outline: as §1

| Cell Line | relative viability (QS11 + Navitoclax; first compound 0.253 µM) | relative viability (QS11 + Navitoclax; first compound 0.8 µM) | relative viability (QS11 + Navitoclax; first compound 2.53 µM) | relative viability (QS11 + Navitoclax; first compound 8 µM) | relative viability (QS11 + Phenformin; first compound 0.08 µM) | relative viability (QS11 + Phenformin; first compound 0.253 µM) | relative viability (QS11 + Phenformin; first compound 0.8 µM) | relative viability (QS11 + Phenformin; first compound 2.53 µM) | relative viability (QS11 + Phenformin; first compound 8 µM) | relative viability (AZ628 + Trametinib; first compound 0.08 µM) | relative viability (AZ628 + Trametinib; first compound 0.253 µM) | relative viability (AZ628 + Trametinib; first compound 0.8 µM) | relative viability (AZ628 + Trametinib; first compound 2.53 µM) | relative viability (AZ628 + Trametinib; first compound 8 µM) | relative viability (AZ628 + Luminespib; first compound 0.08 µM) | relative viability (AZ628 + Luminespib; first compound 0.253 µM) | relative viability (AZ628 + Luminespib; first compound 0.8 µM) | relative viability (AZ628 + Luminespib; first compound 2.53 µM) | relative viability (AZ628 + Luminespib; first compound 8 µM) | relative viability (QS11 + Navitoclax; first compound 0.08 µM) |
| --- | --- | --- | --- | --- | --- | --- | --- | --- | --- | --- | --- | --- | --- | --- | --- | --- | --- | --- | --- | --- |
| ChaGo-K-1 | 1.01 | 1.42 | 1.66 | 1.21 | 0.366 | 0.561 | 0.542 | 0.588 | 0.421 | 0.911 | 0.879 | 0.881 | 0.873 | 0.839 | 0.546 | 0.642 | 0.456 | 0.504 | 0.461 |  |
| SK-LU-1 | 0.871 | 0.646 | 0.487 | 0.479 | 0.527 | 0.557 | 0.587 | 0.404 | 0.456 | 0.325 | 0.323 | 0.257 | 0.248 | 0.248 |  | 0.181 | 0.231 | 0.211 | 0.169 | 0.795 |
| RERF-LC-KJ | 1.31 | 0.98 | 0.896 | 0.725 | 0.407 | 0.41 | 0.438 | 0.378 | 0.315 | 0.762 | 0.719 | 0.824 | 0.835 | 0.736 | 1.21 | 1.23 | 1.43 | 1.08 | 1.19 | 0.996 |
| NCI-H2087 | 1.02 | 0.733 | 0.931 | 0.785 | 0.479 | 0.46 |  | 0.521 | 0.657 | 0.18 | 0.191 | 0.161 | 0.152 | 0.184 | 0.132 | 0.155 | 0.159 | 0.193 | 0.152 | 1.05 |
| LOU-NH91 | 0.572 |  | 0.657 | 0.723 | 0.685 | 0.62 | 0.657 | 0.67 | 0.663 | 0.795 | 0.787 | 0.713 | 0.726 | 0.668 | 0.299 | 0.396 | 0.332 | 0.308 | 0.293 | 0.626 |
| 201T | 1.22 | 0.994 | 1.24 | 1.17 | 0.468 | 0.399 | 0.4 | 0.414 | 0.376 | 0.709 | 0.693 | 0.71 | 0.667 | 0.561 | 1.07 | 1.02 | 1.14 | 1.05 | 1.14 | 1.19 |
| UMC-11 | 0.308 | 0.298 | 0.424 | 0.54 | 0.325 | 0.287 | 0.302 | 0.324 | 0.24 | 0.713 | 0.764 | 0.734 | 0.691 | 0.693 | 1.16 | 0.999 | 0.973 | 0.98 | 1.17 | 0.293 |
| NCI-H1975 | 1.2 | 1.02 | 1.59 | 1.26 | 0.419 | 0.406 | 0.429 | 0.493 | 0.515 | 0.331 | 0.272 | 0.228 | 0.259 | 0.288 | 0.23 | 0.304 | 0.196 | 0.316 | 0.228 | 1.09 |
| NCI-H1395 | 1.09 | 1.31 | 1.45 | 1.02 | 0.397 | 0.437 | 0.425 | 0.457 | 0.453 | 0.954 | 0.739 | 0.794 | 0.732 | 0.776 | 0.701 | 0.763 | 0.688 | 0.808 | 0.686 |  |
| SW 1573 | 0.795 | 0.9 | 0.842 | 0.564 | 0.407 | 0.374 | 0.413 | 0.442 | 0.346 | 0.443 | 0.346 | 0.334 | 0.3 | 0.329 | 0.315 | 0.258 | 0.16 | 0.189 | 0.171 | 0.937 |
| NCI-H1792 | 0.744 | 0.5 | 0.6 | 0.479 | 0.219 |  | 0.338 | 0.268 | 0.178 | 0.333 | 0.247 | 0.117 | 0.195 | 0.052 | 0.528 | 0.372 | 0.334 | 0.435 | 0.192 |  |
| NCI-H441 | 1.04 | 0.673 | 0.723 | 0.529 | 0.861 | 0.958 | 0.71 | 1.01 | 0.884 | 0.405 | 0.306 | 0.386 | 0.283 | 0.437 | 0.33 | 0.342 | 0.345 | 0.469 | 0.241 | 0.452 |
| NCI-H1915 | 0.805 |  | 0.865 | 0.868 | 0.362 | 0.369 |  | 0.376 | 0.348 | 0.139 | 0.128 | 0.109 | 0.144 | 0.0954 | 0.921 | 0.816 | 0.73 | 0.6 | 0.365 | 0.816 |
